According to patent EP0727211A1, “Use of src SH2 specific compounds to treat a bone resorption disease” (SMITHKLINE BEECHAM CORPORATION, priority 1995, dated 1996):

Tests used:
[1] = biological target: T1, human Grb2 SH2 domain (Homo sapiens, UniProt P62993); experiment: SH2 domain / pY peptide binding assay (ELISA-based, 96 well plate), Grb2 SH2; details: for Ki: Ki calculated from IC50 by the expanded equation, Table II; for IC50: cloned human SH2 domain fusion protein, 0.1 uM biotinylated pY peptide, Table I
T1 construct: SH2 domain of human Grb2 (amino acids 58-159); made in house; host or cells: E. coli (pGEX-2T)
Procedure: (§1) The inhibitory activity of compounds at the different human SH2 domains was determined in vitro using SH2 domains expressed as fusion proteins in E. coli. The SH2 domains used herein were the human forms of the src SH2 domain, Grb2 SH2 domain, lck SH2 domain, fyn SH2 domain, SH-PTP2 SH2 domain, p85 SH2 domain and hcp SH2 domain.
(§2) Fusion proteins having the structure GST-X-SH2 were prepared as described in the GST gene fusion kit system available from Pharmacia (New Jersey). GST is the tagging sequence glutathione s-transferase epitope (SEQ ID NO: 8) for fyn, Grb2 and SH-PTP2 and is the tagging sequence glutathione s-transferase epitope (SEQ ID NO: 9) for p85. SH2 refers to the SH2 domains of fyn, Grb2, p85 and SH-PTP2 which were expressed and purified using glutathione Sepharose 4B (Pharmacia) according to "Current Protocols in Molecular Biology", ed. FM Ausubel et al., pub. John Wiley and Sons, Inc., (1995), p 16.7.1. X is an appropriate linker, preferably of 6 to 21 base pairs, used to keep the SH2 construct in frame and complement cloning. As such, the sequence of X is not critical. One skilled in the art can readily construct the appropriate linker. The DNA sequence encoding each GST-X-SH2 fusion protein was designed such that the indicated restriction sites (BamH1 and EcoRI) flank the SH2 region. The vector used in the instant experiments was the E. coli expression vector pGEX-2T (Pharmacia) for fyn, Grb2 and SH-PTP2, and pGEX-3X (Pharmacia) for p85. Each of these vectors result in SH2 constructs having additional C-terminal amino acids as described below.
Human Grb2 SH2 domain: The sequence encoding the SH2 domain of human Grb2 (amino acids 58-159) (Lowenstein, E. et al., Cell 70, 431-442 (1992)) was cloned into the BamHI and EcoRI sites of the expression vector pGEX-2T. The SH2 domain including the additional C-terminal amino acids isoleucine-histidine-arginine-aspartate (SEQ ID NO: 25) was cloned by PCR techniques known to those skilled in the art to yield the expressed fusion protein GST-X-Grb2.
(§3) The binding assays for the SH2 domains and pY peptides were performed in an ELISA-based 96 well plate assay. In Millipore 96 well filter plates, hydrophilic Durapore® (pore size 0.65um Cat. No. MADVN6550), was added 2 ul (50% suspension) of Protein-G Sepharose (available from Pharmacia of N.J. Cat. No. 17-0618-01) and either 2 ul of 2 mg/ml of MAB178. (for gp120/SH2 domain fusion proteins src, lck and hcp) or 0.25 ul of anti-GST polyclonal antisera (available from Pharmacia of N.J.) (for GST/SH2 domain fusion proteins fyn, Grb2, p85 and SH-PTP2). 10 pmol of the subject SH2 domain fusion protein were added to their respective wells. The volume was brought to 100 ul with TBS-T (tris buffered saline plus 0.05% tween-20), incubated and shaken at room trmperature for 1 hr. then washed 1x with TBS-T (4°C). 90 ul of TBS-T were then added to each well. Specific pY biotinylated peptides were diluted to a concentration of 1.0 uM in TBS-T (these peptides can be obtained from Bachem Bioscience of Pennsylvania, Genosys Biotechnologies of Texas and California Peptide Research of California). 10 ul was aliquoted per well to yield a final concentration of 0.1 uM (approx, the Kd for each SH2 domain/peptide pair) and a final volume of 100 ul. The assay plates were incubated until equilibrium binding was attained (3 hr at 4°C with shaking). The assay plates were washed 2 X per well TBS-T (4°C), then 100 ul of SABC (Strepavidin biotinylated horseradish peroxidase complex, available from the Zymed corporation of California cat. no. 93-0043, 1 drop reagent A (streptavidin) and 1 drop of reagent B (AH-biotin conjugated-horseradish peroxidase) per 10 ml of TBS-T, incubated at 37°C for 30 minutes, then cooled to 4°C) was added per well, then incubated at 4°C for 30-60 minutes. The plates were then washed 4 X with TBS-T (4°C) (250 ul/well)/wash). […]

[2] = biological target: T2, human p85 SH2 domain (Homo sapiens, UniProt P27986); experiment: SH2 domain / pY peptide binding assay (ELISA-based, 96 well plate), p85 SH2; details: for Ki: Ki calculated from IC50 by the expanded equation, Table II; for IC50: cloned human SH2 domain fusion protein, 0.1 uM biotinylated pY peptide, Table I
T2 construct: SH2 domain of human p85 (amino acids 321-440); made in house; host or cells: E. coli (pGEX-3X)
Procedure: as §1, §2
Human p85 SH2 domain: The sequence encoding the SH2 domain of human p85 (amino acids 321-440) (Skolnik, E. et al., Cell 65, 83-90 (1991)) was cloned into the BamHI and EcoRI sites of the expression vector pGEX-3X. The SH2 domain including the additional C-terminal amino acids asparagine-serine-serine (SEQ ID NO: 11)was cloned by PCR techniques known to those skilled in the art to yield the expressed fusion protein GST-X-p85.
as §3, with “ul/well)/wash). 100 ul of 1 mg/ml OPD (o-phenyldiamine, Sigma Chemical Corporation, St. Louis Missouri) in Citrate Buffer was added per well.” for “ul/well)/wash).”

T2 sequence (P27986 321-440): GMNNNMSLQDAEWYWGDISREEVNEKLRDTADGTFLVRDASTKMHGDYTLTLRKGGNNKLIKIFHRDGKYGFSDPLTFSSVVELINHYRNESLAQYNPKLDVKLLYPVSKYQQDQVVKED
T1 sequence (P62993 58-159): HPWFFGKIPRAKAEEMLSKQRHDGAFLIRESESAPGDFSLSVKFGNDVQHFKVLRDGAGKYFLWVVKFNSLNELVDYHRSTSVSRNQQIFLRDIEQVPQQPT

| Ki [1] [µM] | IC50 [1] [µM] | Ki [2] [µM] | IC50 [2] [µM] | Compound |
| --- | --- | --- | --- | --- |
| > 1000 | > 300 | > 1000 | > 300 | Cc1nnc(SCC2=C(C(=O)O)N3C(=O)[C@@H](NC(=O)C(N)c4ccc(C(=O)O)cc4)[C@H]3SC2)s1 (stereo partly drawn) [Compound 1, 7-[D,L-α-Amino-α-(4-carboxyphenyl)acetamido]-3-[2-(5-methyl-1,3,4-thiadiazolyl)thiomethyl]Δ^3-cephem-4-carboxylic Acid] |
| > 1000 | > 300 | > 1000 | > 300 | Cc1nc2sc3c(c2c2[nH][nH]c(=O)c12)CCC1(C3)OCCO1 [Compound 3, 8,8-Ethylenedioxy-2,3,7,8,9,10-hexahydro-4-methyl-1H-benzo[b]thieno[2,3-b]pyrazolo[3,4-d]pyridin-3-one] |
| > 1000 | > 300 | > 1000 | > 300 | Cc1ccc(C(=O)c2ccc(C(=O)c3ccc(CC=O)cc3)cc2)cc1 [Compound 4, 4-[4-(4-Methylbenzoyl)benzoyl]phenylacetaldehyde] |
| > 1000 | > 300 | > 1000 | > 300 | Cc1nc2sc3c(c2c2c1c(=O)[nH]n2C)CCC1(C3)OCCO1 [Compound 5, 1,4-Dimethyl-8,8-ethylenedioxy-2,3,7,8,9,10-hexahydro-1H-benzo[b]thieno[2,3-b]pyrazolo[3,4-d]pyridin-3-one] |
| > 1000 | > 300 | > 1000 | > 300 | CCCCCCNC(=O)[C@H]1CC[C@H](CNC(=O)c2ccc([N+](=O)[O-])cc2)CC1 [Compound 7, 4-nitro-benzamido-trans-4-methyl-cyclohexyl-N-hexyl carboxamide] |
| > 1000 | > 300 | > 1000 | > 300 | CCCNC(=O)[C@H]1CC[C@H](CNC(=O)/C=C/c2ccc(C=O)cc2)CC1 [Compound 9, 4-formyl-E-cinnamido-trans-4-methyl-cyclohexyl-N-(propyl) carboxamide] |
| > 1000 | > 300 | > 1000 | > 300 | Cc1nc2sc3c(c2c2[nH][nH]c(=O)c12)CCCC3 [Compound 10, 2,3,7,8,9,10-Hexahydro-4-methyl-1H-benzo[b]thieno[2,3-b]pyrazolo[3,4-d]pyridin-3-one] |

| Compound | Ki [1] [µM] | IC50 [1] [µM] | Ki [2] [µM] | IC50 [2] [µM] |
| --- | --- | --- | --- | --- |
| 4-acetamido-benzamido-trans-4-methyl-cyclohexyl-N-1-(amino-R-2-(methoxy methyl)-pyrrolidine) carboxamide [Compound 8] | 330 | > 300 | > 1000 | > 300 |
| N[C@@H](Cc1cc(Br)c(Oc2ccc(O)c(Cc3ccc(O)nn3)c2)c(Br)c1)C(=O)O [Compound 2, L-3,5-Dibromo-3'-(6-oxo-3(1H)-pyridazinylmethyl)-thyronine] | > 1000 | > 300 | > 1000 | > 300 |
